These are literature values, as cited in patent publication US12029808B2, “Kit and method for dyeing keratinous material by means of aminosilicone and a chromophoric compound” (Henkel AG & Co. KGaA, priority 2019, dated 2024).

The conditions of the data set: 25° C.

Regarding `CCN(Cc1cccc(S(=O)(=O)[O-])c1)c1ccc(C(=C2C=CC(=[N+](CC)Cc3cccc(S(=O)(=O)[O-])c3)C=C2)c2ccccc2S(=O)(=O)[O-])cc1.[Na+].[Na+]` [Acid Blue 9], the solubility in water result is “more than 20 wt. %”.

On to `O=S(=O)([O-])c1ccc(N=Nc2c(O)ccc3ccccc23)cc1.[Na+]` [Acid Orange 7, sodium salt of 4-[(2-hydroxy-1-naphthyl)azo]benzene sulphonate], for which the solubility in water result is “more than 7 g/L”.

As to `Nc1cc(S(=O)(=O)[O-])cc2cc(S(=O)(=O)[O-])c(N=Nc3ccccc3)c(O)c12.[Na+].[Na+]` [Acid Red 33, diantrium salt of 5-amino-4-hydroxy-3-(phenylazo)-naphthalene-2,7-disulphonate], the solubility in water was 2.5 mg/mL.

With `O=C([O-])c1c(Cl)c(Cl)c(Cl)c(Cl)c1-c1c2c(Br)cc(=O)c(Br)c-2oc2c(Br)c(O)cc(Br)c12.O=C([O-])c1c(Cl)c(Cl)c(Cl)c(Cl)c1-c1c2c(Br)cc(=O)c(Br)c-2oc2c(Br)c(O)cc(Br)c12.[Na+].[Na+]` [Acid Red 92, disodium salt of 3,4,5,6-tetrachloro-2-(1,4,5,8-tetrabromo-6-hydroxy-3-oxoxanthen-9-yl)benzoic acid], the solubility in water result is listed as “greater than 10 g/L”.

In the case of `O=C([O-])C1=NN(c2ccc(S(=O)(=O)[O-])cc2)C(=O)C1N=Nc1ccc(S(=O)(=O)[O-])cc1.[Na+].[Na+].[Na+]` (stereo not drawn) [Acid Yellow 23, trisodium salt of 4,5-dihydro-5-oxo-1-(4-sulfophenyl)-4-((4-sulfophenyl)azo)-1H-pyrazole-3-carboxylic acid], the “solubility in water (in words)” value is recorded as “highly soluble in water”.

In the case of “mixture of the sodium salts of mono- and sisulfonic acids of 2-(2-quinolyl)-1H-indene-1,3(2H)-dione [Acid Yellow 3]”, the solubility in water was 20 mg/mL.
